Data reported in article PMC7156724, “Potent BRD4 inhibitor suppresses cancer cell-macrophage interaction” (Nature Communications, 2020).
Several values for one entry are separate records, joined by “and”; a condition that tells them apart may be missing. Identical values can stand only once.

Assays:
[1] = molecular target: T1, BRD4 (BD1+BD2) (Homo sapiens, UniProt O60885); test: BRD4 (BD1+BD2) TR-FRET binding assay; conditions: for Biochemical activity against BRD4 (BD1 + BD2): replicates; for IC50: average IC50, nM, read-out: IC50, biochemical activity against BRD4 (BD1 + BD2)
T1 construct: purchased BPS 32612
Source text: 2. BRD4 binding assay. The inhibitory effects of NHWD-530, NHWD-540, NHWD- […]
(BPS, Cat # 32612) per manufacturer’s instructions. […]

[2] = system: MDA-MB231 triple negative breast cancer (TNBC) cells; test: AlamarBlue assay, MDA-MB231; assay type: cell-based, human; conditions: for Cellular activity in TNBCs (MDA-MB231), alamarBlue: Fig.1f, replicates; for IC50: Homo sapiens, MDA-MB-231, 72 h, 72 h treatment, nM, read-out: IC50, cellular activity in MDA-MB231 (alamarBlue)
Protocol: (§1) 3. AlamarBlue assay. AlamarBlue was made by resazurin sodium salt (Sigma, Cat
(§2) # 199303) dissolved in PBS.
(§3) NCI-H211, MDA-MB231 and A375 cells were plated in 96-well plates at approximately 30% confluence and left overnight to adhere. In the following day, […]
(§4) of treatment, 10 μl AlamarBlue reagent (0.3 mg/ml) was added to each well, and after 18h, the florescence intensity in each well was measured using a top-reading fluorescent plate reader with excitation at 530 nm and emission at 590 nm. […]

[3] = system: NCI-H211 small cell lung cancer (SCLC) cells; test: AlamarBlue assay, NCI-H211; assay type: cell-based; conditions: for Cellular activity in SCLCs (H211), alamarBlue: Fig.1e, replicates; for IC50: Homo sapiens, NCI-H211, 72 h, 72 h treatment, nM, read-out: IC50, cellular activity in NCI-H211 (alamarBlue)
Protocol: as §1, §2, §3, §4

[4] = Fig.1b, concentration(nM) 0.0339849
[5] = Fig.1b, concentration(nM) 0.137272
[6] = Fig.1b, concentration(nM) 0.614394
[7] = Fig.1b, concentration(nM) 1.09152
[8] = Fig.1b, concentration(nM) 1.56864
[9] = Fig.1b, concentration(nM) 2.04576
[10] = Fig.1b, concentration(nM) 2.52288
[11] = concentration column prints 2.52288
[12] = Fig.1d, concentration(nM) 0.0021442
[13] = Fig.1d, concentration(nM) 0.061236
[14] = Fig.1d, concentration(nM) 0.103
[15] = Fig.1d, concentration(nM) 0.59176
[16] = Fig.1d, concentration(nM) 1.19382
[17] = Fig.1d, concentration(nM) 1.79588
[18] = Fig.1d, concentration(nM) 2.39794

Row | Biochemical activity against BRD4 (BD1 + BD2) [1, 4] | Biochemical activity against BRD4 (BD1 + BD2) [1, 5] | Biochemical activity against BRD4 (BD1 + BD2) [1, 6] | Biochemical activity against BRD4 (BD1 + BD2) [1, 7] | Biochemical activity against BRD4 (BD1 + BD2) [1, 8] | Biochemical activity against BRD4 (BD1 + BD2) [1, 9] | Biochemical activity against BRD4 (BD1 + BD2) [1, 10] | Biochemical activity against BRD4 (BD1 + BD2) ([1]; Fig.1b, concentration(nM) 3) | IC50 [1] [nM] | IC50 [2] [nM] | Compound | Cellular activity in TNBCs (MDA-MB231), alamarBlue ([2]; concentration 0.15) | Cellular activity in TNBCs (MDA-MB231), alamarBlue ([2]; concentration 0.6) | Cellular activity in TNBCs (MDA-MB231), alamarBlue ([2]; concentration 1) | Cellular activity in TNBCs (MDA-MB231), alamarBlue ([2]; concentration 1.5) | Cellular activity in TNBCs (MDA-MB231), alamarBlue ([2]; concentration 2) | Cellular activity in TNBCs (MDA-MB231), alamarBlue ([2]; concentration 2.5) | Cellular activity in TNBCs (MDA-MB231), alamarBlue ([2]; concentration 3) | Cellular activity in TNBCs (MDA-MB231), alamarBlue ([2]; concentration -0.3) | Cellular activity in TNBCs (MDA-MB231), alamarBlue ([2]; concentration -0.9) | Cellular activity in SCLCs (H211), alamarBlue ([3]; concentration 0.0169701) | other results
1 | 5.534 and 1.544 | 6.278 and 5.237 | 11.7822 and 11.931 | 36.626 and 29.039 | 74.1149 and 79.0241 | 94.7932 and 97.1735 | 100.446 and 100.744 | 101.488 and 101.636 | 18.1 | – | Cc1nnn(C)c1-c1cnc2c3cc4c(cc3n([C@H](c3ccccc3)C3CCOCC3)c2c1)CN(C)C4=O [NHWD-540] | – | – | – | – | – | – | – | – | – | – | –
2 | – | – | – | – | – | – | – | – | 9.33 ± 0.97 | 7.08 ± 0.85 | Cc1nnn(C)c1-c1cnc2c3c4c(ccc3n([C@H](c3ccccc3)C3CCOCC3)c2c1)cnn4C [NHWD-860] | 14.34 and 13.82 | 35.72 and 34.62 | 67.92 and 71.9 | 82.83 and 82.68 | 87.1 and 88.94 | 87.8 and 87.94 | 90.46 and 89.59 | 5.89 and 8.33 | 3.7 and 7.12 | 1.74 and 11.45 | Cellular activity in SCLCs (H211), alamarBlue ([3]; concentration 0.0398488): 4.56 and 9.08; Cellular activity in SCLCs (H211), alamarBlue ([3]; concentration 0.137272): 4.2 and 14.84; Cellular activity in SCLCs (H211), alamarBlue ([3]; concentration 0.614394): 15.53 and 29.79; Cellular activity in SCLCs (H211), alamarBlue ([3]; concentration 1.09152): 68.35 and 72.54; Cellular activity in SCLCs (H211), alamarBlue ([3]; concentration 1.56864): 88.44 and 89.49; Cellular activity in SCLCs (H211), alamarBlue ([3]; concentration 2.04576): 90.64 and 90.52; Cellular activity in SCLCs (H211), alamarBlue ([3]; concentration 3): 89.32 and 90.99; Cellular activity in SCLCs (H211), alamarBlue [3, 11]: 89.13 and 90.21; IC50 [3]: 8.06 ± 0.91 nM; Biochemical activity against BRD4 (BD1 + BD2) [1, 12]: 1.269 and 4.138; Biochemical activity against BRD4 (BD1 + BD2) [1, 13]: 4.399 and 1.862; Biochemical activity against BRD4 (BD1 + BD2) [1, 14]: 3 and 0.4387; Biochemical activity against BRD4 (BD1 + BD2) [1, 15]: 12.3903 and 19.5044; Biochemical activity against BRD4 (BD1 + BD2) [1, 16]: 74.9941 and 70.1565; Biochemical activity against BRD4 (BD1 + BD2) [1, 17]: 100.036 and 99.751; Biochemical activity against BRD4 (BD1 + BD2) [1, 18]: 101.174 and 100.605; Biochemical activity against BRD4 (BD1 + BD2) ([1]; Fig.1d, concentration(nM) 3): 100.889 and 100.32
3 | 0.8628 and 1.4579 | 6.575 and 2.559 | 10.2946 and 5.683 | 69.3038 and 62.4692 | 79.3216 and 83.6358 | 95.8346 and 94.942 | 100.744 and 99.5537 | 101.346 and 101.785 | 10.2 | – | Cc1nnn(C)c1-c1cnc2c3c4ccn(C)c4ccc3n([C@H](c3ccccc3)C3CCOCC3)c2c1 [NHWD-830] | – | – | – | – | – | – | – | – | – | – | –
4 | – | – | – | – | – | – | – | – | 20.6 ± 1.31 | 14.5 ± 1.16 | Cc1nnn(C)c1-c1cnc2c3cc4cnn(C)c4cc3n([C@H](c3ccccc3)C3CCOCC3)c2c1 [NHWD-850] | 15.75 and 17.7 | 25.28 and 23.6 | 46.11 and 48.16 | 71.17 and 69.3 | 82.44 and 82.62 | 86.67 and 86.03 | 88.63 and 88.4 | 7.16 and 12.83 | 4.44 and 11.66 | 0.35 and 1.87 | Cellular activity in SCLCs (H211), alamarBlue ([3]; concentration 0.0398488): 0.32 and 1.84; Cellular activity in SCLCs (H211), alamarBlue ([3]; concentration 0.137272): 0.23 and -0.84; Cellular activity in SCLCs (H211), alamarBlue ([3]; concentration 0.614394): 7.16 and 14.38; Cellular activity in SCLCs (H211), alamarBlue ([3]; concentration 1.09152): 35.94 and 34.48; Cellular activity in SCLCs (H211), alamarBlue ([3]; concentration 1.56864): 89.1 and 88.35; Cellular activity in SCLCs (H211), alamarBlue ([3]; concentration 2.04576): 90.09; Cellular activity in SCLCs (H211), alamarBlue ([3]; concentration 3): 89.78 and 89.22; Cellular activity in SCLCs (H211), alamarBlue [3, 11]: 89.03 and 89.34; IC50 [3]: 16 ± 1.21 nM; Biochemical activity against BRD4 (BD1 + BD2) [1, 12]: 0.1541 and 1.269; Biochemical activity against BRD4 (BD1 + BD2) [1, 13]: 12.3903 and 11.5366; Biochemical activity against BRD4 (BD1 + BD2) [1, 14]: 4.399 and 8.952; Biochemical activity against BRD4 (BD1 + BD2) [1, 15]: 7.837 and 3; Biochemical activity against BRD4 (BD1 + BD2) [1, 16]: 31.456 and 32.5943; Biochemical activity against BRD4 (BD1 + BD2) [1, 17]: 96.9054 and 95.198; Biochemical activity against BRD4 (BD1 + BD2) [1, 18]: 100.036 and 100.889; Biochemical activity against BRD4 (BD1 + BD2) ([1]; Fig.1d, concentration(nM) 3): 99.751 and 100.889
5 | – | – | – | – | – | – | – | – | 28.3 ± 1.45 | 31.6 ± 1.5 | Cc1nnn(C)c1-c1cnc2c3cc4c(cnn4C)cc3n([C@H](c3ccccc3)C3CCOCC3)c2c1 [NHWD-840] | 9.03 and 8.43 | 17.61 and 17.32 | 35.92 and 25.61 | 53.39 and 55.36 | 70.13 and 73.2 | 91.51 and 91.02 | 94.65 and 95.19 | 6.21 and 5.27 | 2.77 and 4.58 | 11.62 and 22.01 | Cellular activity in SCLCs (H211), alamarBlue ([3]; concentration 0.0398488): 7.96 and 8.04; Cellular activity in SCLCs (H211), alamarBlue ([3]; concentration 0.137272): 3.53 and 13.11; Cellular activity in SCLCs (H211), alamarBlue ([3]; concentration 0.614394): 11.24 and 2.1; Cellular activity in SCLCs (H211), alamarBlue ([3]; concentration 1.09152): 18.38 and 12.66; Cellular activity in SCLCs (H211), alamarBlue ([3]; concentration 1.56864): 47.24 and 47.49; Cellular activity in SCLCs (H211), alamarBlue ([3]; concentration 2.04576): 87.44 and 87.79; Cellular activity in SCLCs (H211), alamarBlue ([3]; concentration 3): 95.52 and 94.98; Cellular activity in SCLCs (H211), alamarBlue [3, 11]: 93.3 and 93.73; IC50 [3]: 38 ± 1.58 nM; Biochemical activity against BRD4 (BD1 + BD2) [1, 12]: 6.699 and 2.7152; Biochemical activity against BRD4 (BD1 + BD2) [1, 13]: 2.407 and 5.845; Biochemical activity against BRD4 (BD1 + BD2) [1, 14]: 1.577 and 18.3661; Biochemical activity against BRD4 (BD1 + BD2) [1, 15]: 2.146 and 9.5447; Biochemical activity against BRD4 (BD1 + BD2) [1, 16]: 15.5205 and 30.3178; Biochemical activity against BRD4 (BD1 + BD2) [1, 17]: 82.9618 and 83.2464; Biochemical activity against BRD4 (BD1 + BD2) [1, 18]: 99.4664 and 98.6128; Biochemical activity against BRD4 (BD1 + BD2) ([1]; Fig.1d, concentration(nM) 3): 101.174 and 100.889
6 | 0.9223 and 6.575 | 8.361 and 5.3853 | 7.766 and 14.6266 | 25.6174 and 20.5594 | 58.197 | 88.9914 and 87.355 | 96.1321 and 98.9586 | 102.231 and 101.636 | 28.5 | – | Cc1nnn(C)c1-c1cnc2c3cc4c(cc3n([C@H](c3ccccc3)C3CCOCC3)c2c1)C(=O)N(C)C4 [NHWD-530] | – | – | – | – | – | – | – | – | – | – | –
7 | 10.1562 and 13.125 | 5 and 10.625 | 14.5312 and 15.4688 | 33.5938 and 32.5 | 66.25 and 68.125 | 95.625 and 95 | 101.719 | 102.344 and 102.5 | 19.5 | – | Cc1nnn(C)c1-c1cnc2c3c4c(ccc3n([C@H](c3ccccc3)C3CCOCC3)c2c1)C(=O)N(C)C4 [NHWD-560] | – | – | – | – | – | – | – | – | – | – | –
